The target in one data set is chymotrypsin (Bos taurus, UniProt P00766). As to the kind of experiment: in vitro. As for the experimental part: FIG. 18. […] At different time point, 25 μL aliquots was taken out, and 10% (v/v) TFA was added to terminate the reaction.
Mix by centrifugation at 8000 rpm for 30 seconds.
Arrange a certain volume of 0.05 μg/μL chymotrypsin solution in another sterile EP. Incubate the EP tubes containing peptides and enzymes at 37° C. for 5 min, and add 3 μL of […] solution to each EP tube containing peptides and mix well. Start timing and extract 25 μL of reaction solution at 1.5, 3.0, 4.5, 6.0 and 9.0 min later, respectively. Add 3.75 μL of 10% TFA to terminate the reaction and mix well by centrifugation at 8000 rpm for 30 seconds.
Arrange a certain volume of 0.05 μg/μL chymotrypsin solution in another sterile EP. Incubate the EP tubes containing peptides and enzymes at 37° C. for 5 min, and then add 4.5 μL of chymotrypsin solution to each EP tube containing peptides and mix well. Start timing and extract 25 μL of reaction solution at 1.5, 3.0, 4.5, 6.0, 9.0, 15.0, 30.0, and 60.0 min later, respectively. Add 3.75 μL of 10% TFA to terminate the reaction and mix well by centrifugation at 8000 rpm for 30 seconds.
Referring to the experimental method in Example 5, in vitro stability of salmon Calcitonin analogs with oral administration activity to the enzymatic hydrolysis by trypsin, chymotrypsin and elastase were performed.
Referring to the experimental method in Example 5, in vitro stability of IL-17A inhibitory peptides towards the enzymatic hydrolysis by trypsin, chymotrypsin and elastase were performed.

A further data set has as its target T1, bovine trypsin (Bos taurus, UniProt P00760).
T1 sequence (P00760 24-246): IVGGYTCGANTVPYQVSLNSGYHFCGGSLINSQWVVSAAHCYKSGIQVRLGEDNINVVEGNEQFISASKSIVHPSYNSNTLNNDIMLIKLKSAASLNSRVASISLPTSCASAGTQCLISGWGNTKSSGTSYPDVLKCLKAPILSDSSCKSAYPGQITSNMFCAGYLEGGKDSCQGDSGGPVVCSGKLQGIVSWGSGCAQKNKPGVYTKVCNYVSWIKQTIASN
The data set can be described thus: Trypsin inhibitory activity of peptides (BApNA hydrolysis, OD405; IC50, Ki, residual activity). It is filed as biochemical. The settings on record: for Ki: Ki=IC50/(1+S/Km), Km 0.33 mM, read-out: Ki; for IC50: trypsin 50 nM, BApNA 1.22 mM, read-out: IC50. In short, it runs like this:
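Trypsin (50 nM final) preincubated with peptides at 37 °C in 50 mM Tris-HCl pH 7.8, 20 mM CaCl2; BApNA added (1.22 mM final), 260 min at 37 °C, then OD405 read. Residual activity from enzyme-only and substrate-only controls; IC50 fitted and converted to Ki via Ki=IC50/(1+S/Km), Km measured separately for BApNA.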

The mark [1] stands for this setting: isolated enzyme chymotrypsin, pH 7.8, Remaining peak area (%)/chymotrypsin.

Read-outs that look alike come from different tables or passages of the source. Bridge positions count the residues as written; N and C are the ends. Square brackets hold non-standard residues; d marks the D form. Peptide text beside a SMILES is read from it. Hyp = O=C(O)[C@@H]1C[C@@H](O)CN1

By amount remaining is commonly meant what is left of the initial amount, in per cent. Take `CC[C@H](C)[C@H](N)C(=O)N[C@@H](Cc1c[nH]cn1)C(=O)N[C@H](C(=O)N[C@H](C(=O)N[C@H](C(=O)N1CCC[C@H]1C(=O)N[C@@H](C)C(=O)N[C@@H](CC(=O)O)C(=O)N[C@@H](CC(C)C)C(=O)N[C@@H](Cc1c[nH]c2ccccc12)C(=O)N[C@@H](CC(=O)O)C(=O)N[C@@H](Cc1c[nH]c2ccccc12)C(=O)N[C@H](C(=O)N[C@@H](CC(N)=O)C(=O)NCC(=O)N[C@@H](Cc1ccccc1)C(=O)N[C@H]1CSSC[C@@H](C(=O)N[C@@H](Cc2ccc(O)cc2)C(=O)NCC(=O)O)NC(=O)[C@H](CCC(N)=O)NC(=O)[C@@H]2CCCN2C(=O)[C@@H]2CCCN2C(=O)[C@H]([C@@H](C)CC)NC(=O)[C@H](CO)NC(=O)[C@H](Cc2ccc(O)cc2)NC(=O)[C@H]([C@@H](C)O)NC1=O)[C@@H](C)CC)[C@@H](C)CC)[C@@H](C)O)C(C)C` [17A-CH] (H-IHVTIPADLWDWINGFCTYSIPPQCYG-OH; disulfide 17-25): the “stability towards chymotrypsin hydrolysis (in words)” value on chymotrypsin is “tolerated to the degradation of corresponding serine proteases”. Besides, the “Remaining peak area (%)/chymotrypsin” value at chymotrypsin (0 h) is 100.0 ± 0.0%. On chymotrypsin (setting [1]), this compound came in with an amount remaining at 0.025 h, 60 μM of 41.6 ± 3%; a fraction remaining at 0.05 h, 60 μM of 41.7 ± 6%; an amount remaining at 0.075 h, 60 μM of 38.8 ± 3.4%; a fraction remaining at 0.1 h, 60 μM of 45.1 ± 8.5%. Besides, on chymotrypsin (setting [1]), the share remaining at 0.15 h, 60 μM came out at 44.3 ± 7.6%; the share remaining at 0.25 h, 60 μM worked out at 35.2 ± 3.8%; the amount remaining at 0.5 h, 60 μM is 30.5 ± 2.5%; the amount remaining at 1 h, 60 μM was determined as 35.7 ± 3%.
What is called Ki is the dissociation constant of the complex between target and ligand, obtained from inhibition or displacement. A word on the IC50: it is the concentration that gives 50% inhibition. `CC[C@H](C)[C@@H]1NC(=O)[C@@H]2CCCN2C(=O)[C@@H]2CCCN2C(=O)[C@H]([C@@H](C)CC)NC(=O)[C@H](CO)NC(=O)[C@H](CCCCN)NC(=O)[C@H]([C@@H](C)O)NC(=O)[C@H](Cc2c[nH]c3ccccc23)NC(=O)[C@H](CCCNC(=N)N)NC(=O)CNC(=O)[C@@H](N)CSSC[C@@H](C(=O)N[C@@H](Cc2ccccc2)C(=O)O)NC1=O` [BT57] (H-CGRWTKSIPPICF-OH; disulfide 1-12; C-terminus assumed): on bovine trypsin, the “inhibitory activity against trypsin (in words)” value (“inhibitory activity” below) is listed as “excellent trypsin inhibitory activities”, the Ki was determined as 30 nM and the IC50 came out at 130 nM.
`CC[C@H](C)[C@@H]1NC(=O)[C@@H]2CCCN2C(=O)[C@@H]2CCCN2C(=O)[C@H](C)NC(=O)[C@H](CO)NC(=O)[C@H](CCCNC(=N)N)NC(=O)[C@H]([C@@H](C)O)NC(=O)[C@H](C)NC(=O)[C@H](CCCNC(=N)N)NC(=O)CNC(=O)[C@@H](N)CSSC[C@@H](C(=O)N[C@@H](Cc2ccccc2)C(=O)O)NC1=O` [BT21] (H-CGRATRSAPPICF-OH; disulfide 1-12; N-terminus and C-terminus assumed): the “inhibitory activity” value at bovine trypsin is recorded as “reduced their anti-trypsin activities”.
Consider `CC[C@H](C)[C@@H]1NC(=O)[C@@H]2C[C@@H](O)CN2C(=O)[C@@H]2CCCN2C(=O)[C@H]([C@@H](C)CC)NC(=O)[C@H](CO)NC(=O)[C@H](CCCCN)NC(=O)[C@H]([C@@H](C)O)NC(=O)[C@H](C)NC(=O)[C@H](CCCNC(=N)N)NC(=O)[C@H](C)NC(=O)[C@@H](N)CSSC[C@@H](C(=O)N[C@@H](Cc2ccccc2)C(=O)O)NC1=O` [BT70] (H-CARATKSIP[Hyp]ICF-OH; disulfide 1-12; C-terminus assumed), for which, on bovine trypsin, the “inhibitory activity” value was “excellent trypsin inhibitory activities” and the Ki came to 30 nM.
In the case of `CC[C@H](C)[C@@H]1NC(=O)[C@@H]2CCCN2C(=O)[C@@H]2C[C@@H](O)CN2C(=O)[C@H]([C@@H](C)CC)NC(=O)[C@H](CO)NC(=O)[C@H](CCCCN)NC(=O)[C@H]([C@@H](C)O)NC(=O)[C@H](C)NC(=O)[C@H](CCCNC(=N)N)NC(=O)[C@H](C)NC(=O)[C@@H](N)CSSC[C@@H](C(=O)N[C@@H](Cc2ccccc2)C(=O)O)NC1=O` [BT69] (H-CARATKSI[Hyp]PICF-OH; disulfide 1-12; C-terminus assumed), at bovine trypsin, the “inhibitory activity” value is listed as “excellent trypsin inhibitory activities”, the Ki was 10 nM and the IC50 worked out at 60 nM.
Consider `CC[C@H](C)[C@@H]1NC(=O)[C@H](C)NC(=O)[C@@H]2CCCN2C(=O)[C@H](CC(C)C)NC(=O)[C@H](CO)NC(=O)[C@H](CCCCN)NC(=O)[C@H]([C@@H](C)O)NC(=O)[C@H](C)NC(=O)[C@H](CCCNC(=N)N)NC(=O)CNC(=O)[C@@H](N)CSSC[C@@H](C(=O)N[C@@H](Cc2ccccc2)C(=O)O)NC1=O` [BT16] (H-CGRATKSLPAICF-OH; disulfide 1-12; C-terminus assumed), for which the “inhibitory activity” value on bovine trypsin was “reduced their anti-trypsin activities”; on bovine trypsin (listed as SEQ ID NO: 16), “excellent trypsin inhibitory activities”. Also, the Ki at bovine trypsin worked out at 190 nM. The Residual trypsin activity at bovine trypsin (peptide 0.00488 μM) is reported as 95.4 ± 4.3%; on bovine trypsin (peptide 0.0098 μM) it was 96.1 ± 0.6%; on bovine trypsin (peptide 0.0195 μM) it was 101.7 ± 1.2%; on bovine trypsin (peptide 0.390 μM), 88.4 ± 2.0%; on bovine trypsin (peptide 0.780 μM) it was 59.7 ± 3.2%; on bovine trypsin (peptide 0.98 μM), 42.2 ± 3.3%. Besides, the values for the Residual trypsin activity on bovine trypsin (peptide 2.439 μM) and at bovine trypsin (peptide 4.88 μM) were 0.8 ± 0.1% and 0.0 ± 0.2%, respectively.
As to `CC[C@H](C)[C@@H]1NC(=O)[C@@H]2CCCN2C(=O)[C@@H]2CCCN2C(=O)[C@H]([C@@H](C)CC)NC(=O)[C@H](CO)NC(=O)[C@H](CCCCN)NC(=O)[C@H]([C@@H](C)O)NC(=O)[C@H](Cc2ccccc2)NC(=O)[C@H](CCCNC(=N)N)NC(=O)CNC(=O)[C@@H](N)CSSC[C@@H](C(=O)N[C@@H](Cc2ccccc2)C(=O)O)NC1=O` [BT52] (H-CGRFTKSIPPICF-OH; disulfide 1-12; N-terminus and C-terminus assumed), on bovine trypsin, the Ki was 30 nM and the IC50 is 130 nM.

The values are drawn from patent US20230416329A1, “A PEPTIDE WITH DISULFIDE BONDS AND INHIBITORY ACTIVITY AGAINST SERINE PROTEASES, DERIVED HYBRID PEPTIDES THEREOF, AND USES THEREOF” (INSTITUTE OF MATERIA MEDICA , CHINESE ACADEMY OF MEDICAL …, priority 2020, published 2023).
